Assay results: PubChem BioAssay AID248 (DTP/NCI, 2004)
Inconclusive results and toxic doses are left out.

System: L1210 leukemia ip in BDF1 mice, survival T/C
Assay: NCI In Vivo Anticancer Drug Screen. Data for tumor model L1210 Leukemia (intraperitoneal) in B6D2F1 (BDF1) mice
Conditions: endpoint: mean survival time, higher = longer survival
Method in brief: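 Survival endpoint. Drug-treated group vs vehicle group, expressed as T divided by C. Tumor passaged by transplantation.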

[1] = dose: 100.0 mg/kg/injection, schedule: Q04DX003 (ip), vehicle: saline

Question: How did the T/C (dose: 50.0 mg/kg/injection, schedule: Q01DX009 (ip), vehicle: saline with Tween-80) turn out when `O=C(OC1CCCC1c1ccccc1)c1cccc([N+](=O)[O-])c1` (configuration not stated) was run?
Answer: Its T/C is 90 % of control.

Question: And the T/C (dose: 100.0 mg/kg/injection, schedule: Q01DX009 (ip), vehicle: saline with Tween-80)?
Answer: Its T/C is 90 % of control.

Question: What about the T/C (dose: 200.0 mg/kg/injection, schedule: Q01DX009 (ip), vehicle: saline with Tween-80) of the same molecule?
Answer: The T/C was 87 % of control.

Question: How did the T/C (dose: 100.0 mg/kg/injection, schedule: Q01DX001 (sc), vehicle: olive oil, sesame oil, peanut oil) turn out when `Cc1ccc(C(C)C)c2cc(C=O)c(O)cc12` was run?
Answer: Its T/C is 95 % of control.

Question: And the T/C (dose: 200.0 mg/kg/injection, schedule: Q01DX001 (sc), vehicle: olive oil, sesame oil, peanut oil)?
Answer: The T/C was 109 % of control.

Question: And the T/C (dose: 400.0 mg/kg/injection, schedule: Q01DX001 (sc), vehicle: olive oil, sesame oil, peanut oil)?
Answer: The T/C was 101 % of control.

Question: With `Cc1ccc(S(=O)(=O)OCCCCl)cc1` as the molecule, how does the T/C (dose: 100.0 mg/kg/injection, schedule: Q01DX001 (ip), vehicle: carboxymethylcellulose (CMC)) read?
Answer: Its T/C is 112 % of control.

Question: And the T/C (dose: 200.0 mg/kg/injection, schedule: Q01DX001 (ip), vehicle: carboxymethylcellulose (CMC))?
Answer: Its T/C is 106 % of control.

Question: And the T/C (dose: 400.0 mg/kg/injection, schedule: Q01DX001 (ip), vehicle: carboxymethylcellulose (CMC))?
Answer: Its T/C is 101 % of control.

Question: `C[N+](C)(C)CCOC(=O)c1cccc(CBr)c1` was tested. Which T/C (dose: 50.0 mg/kg/injection, schedule: Q01DX009 (ip), vehicle: saline) did it give?
Answer: The T/C was 92 % of control.

Question: And the T/C (dose: 100.0 mg/kg/injection, schedule: Q01DX009 (ip), vehicle: saline)?
Answer: The T/C was 95 % of control.

Question: What about the T/C [1] of the same molecule?
Answer: The T/C was 98 % of control.

Question: And the T/C (dose: 200.0 mg/kg/injection, schedule: Q01DX009 (ip), vehicle: saline)?
Answer: Its T/C is 93 % of control.

Question: What about the T/C (dose: 200.0 mg/kg/injection, schedule: Q04DX003 (ip), vehicle: saline) of the same molecule?
Answer: Its T/C is 105 % of control.

Question: `CSC(C)(S(C)(=O)=O)S(C)(=O)=O` was tested. Which T/C (dose: 75.0 mg/kg/injection, schedule: Q01DX001 (ip), vehicle: saline with Tween-80) did it give?
Answer: Its T/C is 102 % of control.

Question: What about the T/C (dose: 150.0 mg/kg/injection, schedule: Q01DX001 (ip), vehicle: saline with Tween-80) of the same molecule?
Answer: The T/C was 96 % of control.

Question: What about the T/C (dose: 300.0 mg/kg/injection, schedule: Q01DX001 (ip), vehicle: saline with Tween-80) of the same molecule?
Answer: The T/C was 98 % of control.

Question: `COc1ccc(OC)c2c1CCCC2` was tested. Which T/C (dose: 100.0 mg/kg/injection, schedule: Q01DX009 (ip), vehicle: Klucel (hydroxypropylcellulose) (HPC)) did it give?
Answer: Its T/C is 106 % of control.

Question: And the T/C (dose: 200.0 mg/kg/injection, schedule: Q01DX009 (ip), vehicle: Klucel (hydroxypropylcellulose) (HPC))?
Answer: Its T/C is 117 % of control.

Question: With `COCc1ccc(N2C(N)=NC(N)=NC2(C)C)cc1` as the molecule, how does the T/C [1] read?
Answer: The T/C was 95 % of control.

Question: How did the T/C (dose: 2.5 mg/kg/injection, schedule: Q01DX005 (ip), vehicle: water) turn out when `COc1cc2c3c(c4ccc(O)cc4c2cc1OC)[C@@H](O)[C@@H]1CCCN1C3` was run?
Answer: The T/C was 106 % of control.

Question: And the T/C (dose: 2.5 mg/kg/injection, schedule: Q01DX009 (ip), vehicle: water)?
Answer: Its T/C is 95 % of control.

Question: And the T/C (dose: 2.5 mg/kg/injection, schedule: Q01DX015 (ip), vehicle: water)?
Answer: Its T/C is 105 % of control.

Question: And the T/C (dose: 5.0 mg/kg/injection, schedule: Q01DX001 (ip), vehicle: water)?
Answer: The T/C was 98 % of control.

Question: What about the T/C (dose: 5.0 mg/kg/injection, schedule: Q01DX005 (ip), vehicle: water) of the same molecule?
Answer: The T/C was 104 % of control.

Question: And the T/C (dose: 5.0 mg/kg/injection, schedule: Q01DX009 (ip), vehicle: water)?
Answer: Its T/C is 119 % of control.

Question: And the T/C (dose: 5.0 mg/kg/injection, schedule: Q01DX009 (sc), vehicle: water)?
Answer: The T/C was 109 % of control.

Question: What about the T/C (dose: 5.0 mg/kg/injection, schedule: Q01DX015 (ip), vehicle: water) of the same molecule?
Answer: The T/C was 120 % of control.

Question: And the T/C (dose: 5.0 mg/kg/injection, schedule: Q02DX005 (ip), vehicle: water)?
Answer: Its T/C is 114 % of control.

Question: What about the T/C (dose: 5.0 mg/kg/injection, schedule: Q## X003 (ip), vehicle: water) of the same molecule?
Answer: The T/C was 111 % of control.

Question: And the T/C (dose: 6.0 mg/kg/injection, schedule: Q01DX Z (ip), vehicle: water)?
Answer: The T/C was 124 % of control.

Question: And the T/C (dose: 6.7 mg/kg/injection, schedule: Q01DX015 (ip), vehicle: water)?
Answer: The T/C was 112 % of control.

Question: What about the T/C (dose: 7.1 mg/kg/injection, schedule: Q01DX015 (ip), vehicle: water) of the same molecule?
Answer: The T/C was 112 % of control.

Question: And the T/C (dose: 10.0 mg/kg/injection, schedule: Q01DX001 (ip), vehicle: water)?
Answer: The T/C was 108 % of control.

Question: And the T/C (dose: 10.0 mg/kg/injection, schedule: Q01DX005 (ip), vehicle: water)?
Answer: The T/C was 109 % of control.

Question: And the T/C (dose: 10.0 mg/kg/injection, schedule: Q01DX009 (ip), vehicle: water)?
Answer: Its T/C is 119 % of control.

Question: What about the T/C (dose: 10.0 mg/kg/injection, schedule: Q01DX009 (oral), vehicle: water) of the same molecule?
Answer: Its T/C is 114 % of control.

Question: What about the T/C (dose: 10.0 mg/kg/injection, schedule: Q01DX009 (sc), vehicle: water) of the same molecule?
Answer: The T/C was 122 % of control.

Question: And the T/C (dose: 10.0 mg/kg/injection, schedule: Q01DX015 (ip), vehicle: water)?
Answer: Its T/C is 112 % of control.

Question: And the T/C (dose: 10.0 mg/kg/injection, schedule: Q## X003 (ip), vehicle: water)?
Answer: Its T/C is 101 % of control.

Question: What about the T/C (dose: 12.0 mg/kg/injection, schedule: Q01DX Z (ip), vehicle: water) of the same molecule?
Answer: The T/C was 151 % of control.

Question: And the T/C (dose: 15.0 mg/kg/injection, schedule: Q01DX005 (ip), vehicle: water)?
Answer: The T/C was 117 % of control.

Question: What about the T/C (dose: 15.0 mg/kg/injection, schedule: Q01DX009 (ip), vehicle: water) of the same molecule?
Answer: The T/C was 120 % of control.

Question: What about the T/C (dose: 15.0 mg/kg/injection, schedule: Q01DX009 (sc), vehicle: water) of the same molecule?
Answer: The T/C was 119 % of control.

Question: And the T/C (dose: 15.0 mg/kg/injection, schedule: Q01DX015 (ip), vehicle: water)?
Answer: Its T/C is 109 % of control.

Question: What about the T/C (dose: 15.0 mg/kg/injection, schedule: Q02DX005 (ip), vehicle: water) of the same molecule?
Answer: The T/C was 124 % of control.

Question: What about the T/C (dose: 15.0 mg/kg/injection, schedule: Q## X003 (ip), vehicle: water) of the same molecule?
Answer: The T/C was 119 % of control.

Question: And the T/C (dose: 20.0 mg/kg/injection, schedule: Q01DX001 (ip), vehicle: water)?
Answer: Its T/C is 104 % of control.

Question: What about the T/C (dose: 20.0 mg/kg/injection, schedule: Q01DX009 (ip), vehicle: water) of the same molecule?
Answer: The T/C was 114 % of control.

Question: What about the T/C (dose: 20.0 mg/kg/injection, schedule: Q01DX009 (oral), vehicle: water) of the same molecule?
Answer: Its T/C is 109 % of control.

Question: And the T/C (dose: 20.0 mg/kg/injection, schedule: Q01DX009 (sc), vehicle: water)?
Answer: The T/C was 88 % of control.

Question: What about the T/C (dose: 20.0 mg/kg/injection, schedule: Q01DX Z (ip), vehicle: water) of the same molecule?
Answer: Its T/C is 110 % of control.

Question: What about the T/C (dose: 20.0 mg/kg/injection, schedule: Q## X003 (ip), vehicle: water) of the same molecule?
Answer: Its T/C is 117 % of control.

Question: And the T/C (dose: 22.5 mg/kg/injection, schedule: Q01DX015 (ip), vehicle: water)?
Answer: Its T/C is 123 % of control.

Question: What about the T/C (dose: 25.0 mg/kg/injection, schedule: Q01DX015 (ip), vehicle: water) of the same molecule?
Answer: Its T/C is 96 % of control.

Question: And the T/C (dose: 30.0 mg/kg/injection, schedule: Q01DX009 (oral), vehicle: water)?
Answer: The T/C was 100 % of control.

Question: What about the T/C (dose: 40.0 mg/kg/injection, schedule: Q01DX001 (ip), vehicle: water) of the same molecule?
Answer: Its T/C is 114 % of control.
